Experimental data: patent US8058306B2, “Phenyl pyrrole aminoguanidine derivatives” (Action Pharma A/S, priority 2006, dated 2011)
Where “and” joins values, the source holds several entries; their conditions need not be identical. Equal values may be shown once. Entries after “also recorded” stand apart in the source; their conditions may differ. Read-outs that look alike come from different tables or passages of the source.

Test: Plasma kinetics in rat following intravenous and oral administration;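 on AUC0-∞: parameter is AUC from zero to infinity in ng·h/mL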
Type: in vivo, Sprague Dawley rats
Conditions: for t1/2: Table XIV; for concentration at 0.05 h / concentration at 0.1 h / concentration at 0.25 h / concentration at 0.75 h / concentration at 1.5 h / concentration at 2.5 h / concentration at 4 h / concentration at 6 h / concentration at 8 h / concentration at 24 h: single intravenous 10 mg/kg
Description: This study determined the intravenous pharmacokinetics and oral bioavailability of compound 1 of the invention (see FIG. 1A, structure no. 1), compound 2 of the invention (see FIG. 1D, structure no. 19) and compound 3 of the invention (see FIG. 1I, structure no. 53) following administration to Sprague Dawley rats at a dose level of 10 mg/kg.
Six groups of 3 male rats received either a single intravenous or single oral administration of compound 1, 2 or 3 of the invention at a dose level of 10 mg/kg. Blood samples were obtained at various times after dosing. Plasma samples were analysed for unchanged test item using a suitable LC-MS/MS method. Pharmacokinetic parameters were estimated from individual plasma concentrations.
Eighteen male rats each received either a single intravenous or a single oral administration of either compound 1, 2 or 3 at a dose level of 10 mg/kg. The formulation was orally administered to each animal by gastric gavage and intravenously administered to each animal via a tail vein. The dose was administered at a dose volume of 5 mL/kg. The formulations were administered to each animal according to the details in the following table:
Blood samples (ca 0.3 mL) were removed from the femoral vein of each animal into tubes containing lithium heparin as anticoagulant.
Blood samples were collected from 3 rats at the following times after dose administration: • 3, 6, 15, 45 min and 1.5, 2.5, 4, 6, 8, 24 h post dose. Oral Administration
Blood samples were collected from 3 rats at the following times after dose administration: • 5, 15, 45 min and 1.5, 2.5, 4, 6, 8, 24 h post dose. Processing of Blood Samples
Pharmacokinetic parameters of compound 1, 2 and 3 were derived by non-compartmental analysis using WinNonLin Pro version 5.0.1 (Pharsight 2005). The following parameters were derived, where appropriate, from the individual plasma concentration versus time profiles:
• F % The absolute oral bioavailability calculated as [AUC0-t (oral)*Dose(iv)/AUC0-t (iv)*Dose (oral)]*100 based on mean values derived after oral and intravenous administration Consideration was given to the estimation of λz and corresponding t1/2 values. Three or more points are required within the terminal phase for λz and t1/2 to be estimated. The following additional variables were tabulated to aid identification of potentially unreliable estimates of t1/2 and AUC:
Pharmacokinetic parameters were reported as geometric mean except Tmax which was reported as the median. Geometric coefficient of variation was calculated as: […]
Actual sampling times were used for all calculations of pharmacokinetic parameters. Plasma concentrations that were below the limit of quantification were taken as zero for the pharmacokinetic analysis.

[1] = intravenous 10 mg/kg, male rats, individual animals, acetate, 10 mg/kg
[2] = male, Sprague Dawley, rat, plasma, iv, 10 mg/kg, male rats, individual animals, read-out: Sample Concentration in plasma
[3] = male, Sprague Dawley, rat, plasma, iv, 10 mg/kg, male rats, mean of 3, read-out: Mean Concentration in plasma
[4] = male, Sprague Dawley, rat, plasma, iv, 10 mg/kg, male rats, individual animals, LLOQ 2.50, read-out: Sample Concentration in plasma
[5] = male, Sprague Dawley, rat, plasma, iv, 10 mg/kg, male rats, mean, read-out: Mean Concentration in plasma

bioavailability (Sprague Dawley, rat, plasma, 10 mg/kg oral vs intravenous, male rats, from mean AUC0-t, read-out: Mean absolute oral bioavailability): 20.6%
t1/2 (intravenous 10 mg/kg, male rats, Arithmetic Mean): 3.15 h
t1/2 (intravenous 10 mg/kg, male rats, Geometric mean): 3.14 h
t1/2 (intravenous 10 mg/kg, male rats, Median): 3.26 h
t1/2 [1]: 3.26 h and 3.46 h and 2.74 h
Between-animal variability in systemic exposure, coefficient of variation (CV) of AUC0-t (intravenous 10 mg/kg, male rats): less than 30%
AUC0-∞ [1]: 1911 ng·h/mL and 2504 ng·h/mL
AUC(0-t) [1]: 1896 ng·h/mL and 2258 ng·h/mL
C0 [1]: 9463 ng/mL and 4924 ng/mL
CL [1]: 90.3 mL/min/kg and 68.25 mL/min/kg
MRT [1]: 2.53 h
Vss [1]: 13.694 L/kg and 13.225 L/kg
Systemic clearance (in words) (intravenous 10 mg/kg, rats): high
systemic plasma clearance (CL) compared with hepatic blood flow (in words) (intravenous 10 mg/kg, hepatic blood flow 3312 mL/h/kg): greater than hepatic blood flow
AUC(0-inf) (male, Sprague Dawley, rat, plasma, iv, 10 mg/kg, intravenous 10 mg/kg, male rats, Arithmetic Mean): 2500 ng·h/mL
AUC(0-t) (male, Sprague Dawley, rat, plasma, iv, 10 mg/kg, intravenous 10 mg/kg, male rats, Arithmetic Mean, read-out: AUC0-t): 2410 ng·h/mL
C0 (male, Sprague Dawley, rat, plasma, iv, 10 mg/kg, intravenous 10 mg/kg, male rats, Arithmetic Mean, read-out: C0): 6630 ng/mL
clearance (male, Sprague Dawley, rat, plasma, iv, 10 mg/kg, intravenous 10 mg/kg, male rats, Arithmetic Mean, read-out: CL (converted)): 71.3 mL/min/kg
MRT (male, Sprague Dawley, rat, plasma, iv, 10 mg/kg, intravenous 10 mg/kg, male rats, Arithmetic Mean, read-out: MRT): 3.24 h
Vd (male, Sprague Dawley, rat, plasma, iv, 10 mg/kg, intravenous 10 mg/kg, male rats, Arithmetic Mean, read-out: Vss): 13.4 L/kg
AUC(0-inf) (male, Sprague Dawley, rat, plasma, iv, 10 mg/kg, intravenous 10 mg/kg, male rats, Geometric mean): 2460 ng·h/mL
AUC(0-t) (male, Sprague Dawley, rat, plasma, iv, 10 mg/kg, intravenous 10 mg/kg, male rats, Geometric mean, read-out: AUC0-t): 2360 ng·h/mL
C0 (male, Sprague Dawley, rat, plasma, iv, 10 mg/kg, intravenous 10 mg/kg, male rats, Geometric mean, read-out: C0): 6360 ng/mL
clearance (male, Sprague Dawley, rat, plasma, iv, 10 mg/kg, intravenous 10 mg/kg, male rats, Geometric mean, read-out: CL (systemic plasma clearance) (converted)): 69.9 mL/min/kg
MRT (male, Sprague Dawley, rat, plasma, iv, 10 mg/kg, intravenous 10 mg/kg, male rats, Geometric mean, read-out: MRT): 3.19 h
Vd (male, Sprague Dawley, rat, plasma, iv, 10 mg/kg, intravenous 10 mg/kg, male rats, Geometric mean, read-out: Vss (mean apparent volume of distribution)): 13.4 L/kg
half-life (male, Sprague Dawley, rat, plasma, iv, 10 mg/kg, intravenous 10 mg/kg, male rats, Geometric mean, read-out: t1/2 (mean apparent terminal half-life) (converted)): 3.14 h
AUC(0-inf) (male, Sprague Dawley, rat, plasma, iv, 10 mg/kg, intravenous 10 mg/kg, male rats, Median): 2500 ng·h/mL
AUC(0-t) (male, Sprague Dawley, rat, plasma, iv, 10 mg/kg, intravenous 10 mg/kg, male rats, Median, read-out: AUC0-t): 2260 ng·h/mL
C0 (male, Sprague Dawley, rat, plasma, iv, 10 mg/kg, intravenous 10 mg/kg, male rats, Median, read-out: C0): 5520 ng/mL
clearance (male, Sprague Dawley, rat, plasma, iv, 10 mg/kg, intravenous 10 mg/kg, male rats, Median, read-out: CL (converted)): 68.2 mL/min/kg
MRT (male, Sprague Dawley, rat, plasma, iv, 10 mg/kg, intravenous 10 mg/kg, male rats, Median, read-out: MRT): 3.23 h
Vd (male, Sprague Dawley, rat, plasma, iv, 10 mg/kg, intravenous 10 mg/kg, male rats, Median, read-out: Vss): 13.2 L/kg
AUC(0-inf) (male, Sprague Dawley, rat, plasma, iv, 10 mg/kg, intravenous 10 mg/kg, male rats, individual animals): 3090 ng·h/mL
AUC(0-t) (male, Sprague Dawley, rat, plasma, iv, 10 mg/kg, intravenous 10 mg/kg, male rats, individual animals, read-out: AUC0-t): 3080 ng·h/mL
C0 (male, Sprague Dawley, rat, plasma, iv, 10 mg/kg, intravenous 10 mg/kg, male rats, individual animals, read-out: C0): 5520 ng/mL
clearance (male, Sprague Dawley, rat, plasma, iv, 10 mg/kg, intravenous 10 mg/kg, male rats, individual animals, read-out: CL (converted)): 55.4 mL/min/kg
MRT (male, Sprague Dawley, rat, plasma, iv, 10 mg/kg, intravenous 10 mg/kg, male rats, individual animals, read-out: MRT): 3.96 h
Vd (male, Sprague Dawley, rat, plasma, iv, 10 mg/kg, intravenous 10 mg/kg, male rats, individual animals, read-out: Vss): 13.2 L/kg
concentration at 0.05 h (male, Sprague Dawley, rat, plasma, iv, 10 mg/kg, male rats, 0.05 h (3 min), mean of 3, read-out: Mean Concentration in plasma): 3170 ng/mL
concentration at 0.05 h (male, Sprague Dawley, rat, plasma, iv, 10 mg/kg, male rats, 0.05 h, individual animals, read-out: Sample Concentration in plasma): 2530 ng/mL
concentration at 0.1 h [2]: 978 ng/mL
concentration at 0.1 h [3]: 1100 ng/mL
concentration at 0.25 h [2]: 481 ng/mL
concentration at 0.25 h [3]: 780 ng/mL
concentration at 0.75 h [2]: 404 ng/mL
concentration at 0.75 h [3]: 465 ng/mL
concentration at 1.5 h [2]: 274 ng/mL
concentration at 1.5 h [3]: 335 ng/mL
concentration at 2.5 h [2]: 240 ng/mL
concentration at 2.5 h [3]: 251 ng/mL
concentration at 4 h [2]: 179 ng/mL
concentration at 4 h [3]: 192 ng/mL
concentration at 6 h [2]: 103 ng/mL
concentration at 6 h [3]: 119 ng/mL
concentration at 8 h [4]: 62.3 ng/mL
concentration at 8 h [5]: 81.2 ng/mL
concentration at 24 h [4]: 3.08 ng/mL
concentration at 24 h [5]: 2.82 ng/mL
AUC(0-inf) (male, Sprague Dawley, rat, plasma, po, 10 mg/kg, oral 10 mg/kg, male rats, Arithmetic Mean): 838 ng·h/mL
AUC(0-t) (male, Sprague Dawley, rat, plasma, po, 10 mg/kg, oral 10 mg/kg, male rats, Arithmetic Mean, read-out: AUC0-t): 518 ng·h/mL
Cmax (male, Sprague Dawley, rat, plasma, po, 10 mg/kg, oral 10 mg/kg, male rats, Arithmetic Mean, read-out: Cmax): 110 ng/mL
MRT (male, Sprague Dawley, rat, plasma, po, 10 mg/kg, oral 10 mg/kg, male rats, Arithmetic Mean, read-out: MRT): 6.83 h
half-life (male, Sprague Dawley, rat, plasma, po, 10 mg/kg, oral 10 mg/kg, male rats, Arithmetic Mean, read-out: t1/2 (converted)): 3.3 h
Tmax (male, Sprague Dawley, rat, plasma, po, 10 mg/kg, oral 10 mg/kg, male rats, Arithmetic Mean, read-out: tmax): 4.67 h
SMILES: N=C(N)NN=CC=Cc1cccn1-c1ccccc1Br [Compound 3, [1-(2-bromophenyl)-1H-pyrrol-2-yl-allylideneamino]guanidinium acetate]
volume of distribution compared with total body water (in words) (intravenous 10 mg/kg, rats, total body water 668 mL/kg, acetate, 10 mg/kg): exceeded the total body water; also recorded: markedly greater than that of the total body water
